# Source: patent US8158372B2, “Agonists of a bitter taste receptor and uses thereof” (Deutsches Institut für Ernährungsforschung Potsdam-Rehbrücke, priority 2004, dated 2012)
# Structures can show the parent of a compound that is named as a salt. Where two headings read alike, the source gives them in different places.
# What was measured:
# hTAS2R14 = target: T1, hTAS2R14 (Homo sapiens, UniProt Q9NYV8)
# T1 sequence (Q9NYV8 1-317): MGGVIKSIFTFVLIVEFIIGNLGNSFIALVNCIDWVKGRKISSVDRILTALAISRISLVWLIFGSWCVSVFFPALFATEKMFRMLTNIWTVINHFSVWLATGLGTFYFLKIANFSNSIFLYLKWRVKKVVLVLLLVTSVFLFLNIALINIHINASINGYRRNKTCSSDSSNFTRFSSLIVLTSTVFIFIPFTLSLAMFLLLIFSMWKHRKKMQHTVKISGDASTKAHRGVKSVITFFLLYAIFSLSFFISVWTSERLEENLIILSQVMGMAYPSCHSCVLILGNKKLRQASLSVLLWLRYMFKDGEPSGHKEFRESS
# mTAS2R8 = target: T2, mTAS2R8 (Mus musculus, UniProt Q9JKT3); settings: denatonium at high doses; Chandrashekar et al. 2000; cited from earlier work
# T2 sequence (Q9JKT3 1-297): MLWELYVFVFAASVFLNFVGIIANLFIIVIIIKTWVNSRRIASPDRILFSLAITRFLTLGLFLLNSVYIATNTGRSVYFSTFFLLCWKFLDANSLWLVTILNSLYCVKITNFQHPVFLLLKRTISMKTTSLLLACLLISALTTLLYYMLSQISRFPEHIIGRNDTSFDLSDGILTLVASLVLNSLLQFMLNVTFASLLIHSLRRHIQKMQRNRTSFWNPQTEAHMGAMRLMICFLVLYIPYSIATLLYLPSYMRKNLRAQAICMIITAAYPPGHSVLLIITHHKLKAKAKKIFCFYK
# hTAS2R4 = target: T3, hTAS2R4 (Homo sapiens, UniProt Q9NYW5); settings: denatonium at high doses; Chandrashekar et al. 2000; cited from earlier work
# T3 sequence (Q9NYW5 1-299): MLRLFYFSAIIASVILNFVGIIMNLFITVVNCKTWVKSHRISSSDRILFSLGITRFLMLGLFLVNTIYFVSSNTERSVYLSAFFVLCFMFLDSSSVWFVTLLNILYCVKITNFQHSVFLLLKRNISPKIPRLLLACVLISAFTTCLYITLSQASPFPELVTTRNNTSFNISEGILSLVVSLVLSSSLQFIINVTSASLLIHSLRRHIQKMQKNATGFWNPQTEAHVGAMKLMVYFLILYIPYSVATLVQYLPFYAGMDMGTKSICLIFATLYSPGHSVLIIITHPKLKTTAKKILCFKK
# rTAS2R9 = target: T4, rTAS2R9 (Rattus norvegicus, UniProt Q9JKT5); settings: Bufe et al. 2002; cited from earlier work
# T4 sequence (Q9JKT5 1-309): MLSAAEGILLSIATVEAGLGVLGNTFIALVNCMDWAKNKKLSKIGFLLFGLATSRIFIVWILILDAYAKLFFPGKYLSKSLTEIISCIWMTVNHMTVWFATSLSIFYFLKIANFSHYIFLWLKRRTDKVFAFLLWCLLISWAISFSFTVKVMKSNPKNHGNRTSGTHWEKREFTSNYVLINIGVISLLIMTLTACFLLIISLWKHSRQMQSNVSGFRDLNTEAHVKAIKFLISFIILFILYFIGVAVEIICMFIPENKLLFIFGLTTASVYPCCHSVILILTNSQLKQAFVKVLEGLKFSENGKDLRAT
# mTAS2R5 = target: T5, mTAS2R5 (Mus musculus, UniProt Q9JKT4); settings: Chandrashekar et al. 2000; cited from earlier work
# T5 sequence (Q9JKT4 1-300): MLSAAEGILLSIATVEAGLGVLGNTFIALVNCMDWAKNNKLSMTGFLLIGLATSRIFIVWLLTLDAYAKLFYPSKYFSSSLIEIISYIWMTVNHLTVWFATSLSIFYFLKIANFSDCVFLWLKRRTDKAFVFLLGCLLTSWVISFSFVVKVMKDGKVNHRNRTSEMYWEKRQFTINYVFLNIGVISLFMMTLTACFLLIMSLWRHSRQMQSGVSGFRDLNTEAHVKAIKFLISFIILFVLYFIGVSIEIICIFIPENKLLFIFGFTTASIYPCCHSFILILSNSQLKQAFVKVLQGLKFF
# [1] = increase of intracellular calcium (fluorescence) in hTAS2R14 transfected cells, traces only shown as drawings, Table 1 A
compound,measurement,setting,value
CN1C2CCC1CC(OC(=O)C(CO)c1ccccc1)C2 (stereo not drawn) [atropine],response,hTAS2R14,n.r.
CCN(CCCc1ccccc1)CCCc1ccccc1.O=C(O)CC(O)(CC(=O)O)C(=O)O [alverine citrate salt],response,hTAS2R14; conc 50 μM,n.r.
Cn1c(=O)c2c(ncn2C)n(C)c1=O [caffeine],response,hTAS2R14; conc 3000 μM,n.r.
"C1CCN2C[C@H]3CC(CN4CCCC[C@@H]34)[C@H]2C1 (single isomer, unassigned; (-)) [(−)-sparteine]",response,hTAS2R14,n.r.
ouabain,response,hTAS2R14,n.r.
CC1CCC2[C@@H]1C1CC(O)[C@H](C)C1CC[C@@]2(C)O (stereo partly drawn) [pseudo-artabsine],activation of hTAS2R14 (agonist),hTAS2R14; [1],agonist
"NC(=S)Nc1ccccc1 [phenylthiocarbamide (PTC), phenylthiocarbamide]",response,hTAS2R14,n.r.
"O=Cc1cccc2cccc(C(=O)O)c12 [1,8-naphthaldehydic acid]",activation of hTAS2R14 (agonist),hTAS2R14; [1],agonist
CC(C)(O)[C@@H]1[C@H]2OC(=O)[C@@H]1[C@]1(O)C[C@H]3O[C@]34C(=O)O[C@H]2[C@]14C [picrotin],activation of hTAS2R14 (agonist),hTAS2R14,agonist
O=C(O)/C=C/c1ccc(O)c(O)c1 [caffeic acid],response,hTAS2R14; conc 30 μM,n.r.
CC(=O)OC1C[C@H]2[C@H](C)C(=O)O[C@@H]2/C=C(\C)CC/C=C/1C (stereo partly drawn) [herbolide A],activation of hTAS2R14 (agonist),hTAS2R14; [1],agonist
CC[N+](CC)(CC(=O)Nc1c(C)cccc1C)Cc1ccccc1 [denatonium],receptor response,mTAS2R8,respond
same,receptor response,hTAS2R4,respond
O=C([O-])c1ccccc1.[Na+] [sodium benzoate],activation of hTAS2R14 (agonist),hTAS2R14,agonist
C=C1C(=O)O[C@H]2[C@H]1CC/C(C)=C/CC[C@@]1(C)O[C@@H]21 [parthenolide],activation of hTAS2R14 (agonist),hTAS2R14; [1],agonist
N[C@@H](Cc1ccccc1)C(=O)O [L-phenylalanine],response,hTAS2R14; conc 10000 μM,n.r.
C=C[C@H]1CN2CC[C@H]1C[C@H]2[C@H](O)c1ccnc2ccc(OC)cc12 [quinine sulfate dihydrate],response,hTAS2R14; conc 50 μM,n.r.
O=[N+]([O-])c1cccc2ccccc12 [1-nitronaphthalene],activation of hTAS2R14 (agonist),hTAS2R14,agonist
"c1ccc2c(c1)CCc1ccccc1-2 [9,10-dihydrophenanthrene]",response,hTAS2R14; conc 5 μM,n.r.
"CCCc1cc(=O)[nH]c(=S)[nH]1 [6-propyl-2-thiouracil (PROP), 6-propyl-2-thiouracil]",response,hTAS2R14; conc 100 μM,n.r.
same,receptor response,hTAS2R4,to a lesser extend
O=C(N[C@H](CO)[C@H](O)c1ccc([N+](=O)[O-])cc1)C(Cl)Cl [chloramphenicol],response,hTAS2R14; conc 30 μM,n.r.
O=C(c1ccccc1)C(O)c1ccccc1 (stereo not drawn) [benzoin],response,hTAS2R14,n.r.
N[C@H](Cc1ccccc1)C(=O)O [D-phenylalanine],response,hTAS2R14; conc 10000 μM,n.r.
O=C(O)c1ccc2c(c1)OCO2 [piperonylic acid],activation of hTAS2R14 (agonist),hTAS2R14,agonist
strychnine nitrate,response,hTAS2R14,n.r.
C=C1C(OC(C)=O)CC/C(C)=C/[C@H]2OC(=O)[C@@H](C)[C@@H]2CC1OC(C)=O (stereo partly drawn) [herbolide D acetate],activation of hTAS2R14 (agonist),hTAS2R14; [1],agonist
C=C1C(=O)OC2C3O[C@]3(C)CC/C=C(\C)CC(O)[C@@H]12 (stereo partly drawn) [hydroxy-8α-parthenolide],activation of hTAS2R14 (agonist),hTAS2R14; [1],agonist
"CN1CCCC1c1cccnc1 (single isomer, unassigned; (-)) [(−)-nicotine]",response,hTAS2R14; conc 10 μM,n.r.
CCCC(C)(COC(N)=O)COC(=O)NC(C)C (stereo not drawn) [carisoprodol],response,hTAS2R14,n.r.
C=C(C)[C@@H]1[C@H]2OC(=O)[C@@H]1[C@]1(O)C[C@H]3O[C@]34C(=O)O[C@H]2[C@]14C [picrotoxinin],activation of hTAS2R14 (agonist),hTAS2R14,agonist
C[C@@H]1C[C@@H]([C@H](O)CC2CC(=O)NC(=O)C2)C(=O)[C@@H](C)C1 [cycloheximide],response,hTAS2R14,n.r.
same,receptor response,rTAS2R9,respond
same,receptor response,mTAS2R5,respond
(−)-α-thujone,activation of hTAS2R14 (agonist),hTAS2R14,agonist
O=C([O-])c1cc(=O)c2c(OCC(O)COc3cccc4oc(C(=O)[O-])cc(=O)c34)cccc2o1.[Na+].[Na+] [cromolyn sodium salt],response,hTAS2R14; conc 5000 μM,n.r.
O=C(O)c1cccc2ccccc12 [1-naphthoic acid],activation of hTAS2R14 (agonist),hTAS2R14; [1],agonist
Cc1cc(=O)n(-c2ccccc2)n1C [antipyrine],response,hTAS2R14,n.r.
COc1cc2c(c(OC)c1OC)-c1ccc(OC)c(=O)cc1[C@@H](NC(C)=O)CC2 [colchicine],response,hTAS2R14,n.r.
